In US20240408116A1, “COMPOSITIONS FOR ENHANCING SEXUAL PLEASURE WITH REDUCED PHAR[…] OF PDE5 INHIBITOR” (priority 2023, published 2024):

System: male participants
Assay: Male participants rated strength of erections and orgasms on a scale of 1 to 10 after ingesting PDE5 inhibitor and cannabis/THC
Type: in vivo, human

Measured: PDE5 inhibiting effect of THC taken alone

Experimental: Male participants rated the strength of their erections and orgasms, and female participants rated the strength of their threshold desire, arousal and orgasms, on a scale of 1 to 10.
This first time, the subject took the full prescription dose of sildenafil (100 mg) in pill form together with an infused cannabis edible containing 20 mg of THC.
The subject in Examples 1 and 2 further reduced the dosage of sildenafil to 40 mg, 30 mg, and 20 mg in stages, together with cannabis dosages that delivered 20 mg, 15 mg, or 10 mg of THC.
A test subject consumed ingestible dosage forms of cannabis and sildenafil. This first time, the subject took 50% of the full prescription dose of sildenafil (50 mg) in pill form together with an infused cannabis edible containing 20 mg of THC.
The subject in Example 4 further reduced the dosage of sildenafil to 40 mg and used the same cannabis dosage that delivered 20 mg of THC.
The subject in Examples 4 and 5 further reduced the dosage of sildenafil to 30 mg, 20 mg, and 10 mg in stages, together with cannabis dosages that delivered 20 mg, 15 mg, or 10 mg of THC.
A test subject consumed ingestible dosage forms of cannabis and sildenafil. This first time, the subject took 60% of the full prescription dose of sildenafil (60 mg) in pill form together with an infused cannabis edible containing 25 mg of THC.
The test subject in Example 7 further reduced the dosage of sildenafil to 40 mg and used a cannabis dosage that delivered 20 mg of THC.
The subject in Examples 7 and 8 further reduced the dosage of sildenafil to 30 mg, 20 mg, and 10 mg in stages, together with cannabis dosages that delivered 20 mg, 15 mg, or 10 mg of THC.

CCCCCc1cc(O)c2c(c1)OC(C)(C)[C@@H]1CCC(C)=C[C@@H]21 [THC, tetrahydrocannabinol]
no noticeable PDE5 inhibiting effect: Example 1: person | Example 4: person | Example 7: person | Example 10: person
